The source of these data is patent KR20130112248A, “피라졸로피리미딘 유도체 화합물, 이를 포함하는 산화질소 생성 억제용 조성물 및 뇌신경 질환 예방 및 치료용 약학적 조성물” (한국과학기술연구원, priority 2012, dated 2013).

The first assay has as its system NO production in BV-2 cells [NO 생성; BV-2 세포]. Nature of the assay: Nitric oxide (NO) quantification (nitrite, Griess reaction) in LPS-activated BV-2 cells. It is filed as cell-based. The following applies: 20 μM, LPS 0.2 ㎍/mL, 24 h co-treatment, nitrite by Griess at 540 nm. (In general: Nitrite, measured by Griess reagent, commonly stands in for NO production.)
Take “2-(4-(1-페닐에틸아미노)-6-(메틸티오)-1H-피라졸로[3,4-d]피리미딘-1-일)에틸카바메이트 [화합물 14g]”: the “NO (% of LPS)” value is recorded as 33.5±1.3 % of LPS.

The assay is the same for the next values; noted with them: 20 μM, LPS 0.2 ㎍/mL, 24 h co-treatment, nitrite by Griess at 540 nm, 1440 min.
On to `CCCCNc1nc(NC(C)c2ccccc2)c2cnn(Cc3ccccc3)c2n1` (centres unmarked) [화합물 24f, 1-벤질-N6-뷰틸-N4-(1-페닐에틸)-1H-피라졸로[3,4-d]피리미딘-4,6-디아민], for which the “NO (% of LPS)” value is reported as 9±1 % of LPS. Still for that read-out and setting: in the case of `CCCCNc1nc(NC(C)c2ccccc2)c2cnn(Cc3ccccc3)c2n1` (centres unmarked) [24i, 1-벤질-N6-뷰틸-N4-(1-페닐에틸)-1H-피라졸로[3,4-d]피리미딘-4,6-디아민] it was 42±0.8 % of LPS. Regarding `CC(Nc1nc([S+](C)[O-])nc2c1cnn2Cc1ccccc1)c1ccccc1` (centres unmarked) [화합물 22h, 1-벤질-6-(메틸설파이닐)-N-(1-페닐에틸)-1H-피라졸로[3,4-d]피리미딘-4-아민], the “NO (% of LPS)” value is given as 59±1.4 % of LPS.

Staying with this assay, now noted: Mus musculus, 20 μM, LPS 0.2 ㎍/mL, 24 h co-treatment, nitrite by Griess at 540 nm.
Regarding `CSc1nc(N2CCN(C)CC2)c2cn[nH]c2n1` [6n, 4-(4-메틸피페라지노)-6-(메틸티오)피라졸로[3,4-d]피리미딘], the activity at 20 µM came out at 114 ± 9%.

The same assay, now with this note: Mus musculus, BV-2, 24 h, 20 μM, LPS 0.2 ㎍/mL, 24 h co-treatment, nitrite by Griess at 540 nm.
`COCCNc1nc(NC(C)c2ccccc2)c2cnn(Cc3ccccc3)c2n1` (centres unmarked) [화합물 24h, 1-벤질-N6-(2-메톡시에틸)-N4-(1-페닐에틸)-1H-피라졸로[3,4-d]피리미딘-4,6-디아민]: the activity at 20 µM is 44 ± 4.2%. Turning to `COc1ccccc1CCn1ncc2c(NCc3ccccc3OC)nc(SC)nc21` [화합물 19i, N-(2-메톡시벤질)-1-(2-메톡시펜에틸)-6-(메틸티오)-1H-피라졸로[3,4-d]피리미딘-4-아민], the activity at 20 µM worked out at 23.1 ± 0.5%. Take `CSc1nc(NC(c2ccccc2)c2ccc(Cl)cc2)c2cnn(-c3ccc(C)cc3)c2n1` (centres unmarked) [화합물 21g, N-((4-클로로페닐)(페닐)메틸)-6-(메틸티오)-1-p-톨릴-1H-피라졸로[3,4-d]피리미딘-4-아민]: the activity at 20 µM amounted to 79 ± 1.8%. For the compound `CSc1nc(NCCc2ccccc2)c2cnn(C(C)(C)C)c2n1` [화합물 17h, 1-t-뷰틸-4-(2-페닐에틸)아미노-6-(메틸티오)피라졸로[3,4-d]피리미딘], the activity at 20 µM worked out at 61 ± 1%.

As to `CSc1nc(NCCc2ccccc2)c2cnn(Cc3ccccc3)c2n1` [화합물 16d, 1-벤질-4-(2-페닐에틸)아미노-6-(메틸티오)피라졸로[3,4-d]피리미딘], the activity at 20 µM amounted to 54 ± 1%. On the same count and under the same terms, then `CSc1nc(NC(C)C2CCCCC2)c2cnn(-c3ccccc3)c2n1` (centres unmarked) [화합물 15za, N-(1-사이클로헥실에틸)-6-(메틸티오)-1-페닐-1H-피라졸로[3,4-d]피리미딘-4-아민], with 36 ± 0.7%; and `CSc1nc(Cl)c2cnn(-c3ccccc3)c2n1` [5e, 1-페닐-4-클로로-6-(메틸티오)피라졸로[3,4-d]피리미딘], with 50 ± 7%. For `CCCCSc1nc(SC)nc2c1cnn2Cc1ccccc1` [화합물 16m, 1-벤질-4-(뷰틸티오)-6-(메틸티오)-1H-피라졸로[3,4-d]피리미딘], the activity at 20 µM is 58 ± 1.9%. The same measure, in the same setting: in the case of `COc1ccc([C@H](C)Nc2nc(S(C)(=O)=O)nc3c2cnn3-c2ccccc2)cc1` [화합물 23h, N-((S)-1-(4-메톡시페닐)에틸)-6-(메틸설포닐)-1-페닐-1H-피라졸로[3,4-d]피리미딘-4-아민] it was 41 ± 5.7%; in that of `CSc1nc(NC(C)c2ccc(C)cc2)c2cnn(Cc3ccccc3)c2n1` (centres unmarked) [화합물 16za, 1-벤질-6-(메틸티오)-N-(1-p-톨릴에틸)-1H-피라졸로[3,4-d]피리미딘-4-아민], 40 ± 1.3%; in that of `CSc1nc(N2CCCCC2)c2cn[nH]c2n1` [6s, 4-피페리디노-6-(메틸티오)피라졸로[3,4-d]피리미딘], 85 ± 15%. The same measure, in the same setting: then `COc1ccccc1CCn1ncc2c(NCc3ccccc3C)nc(SC)nc21` [화합물 19g, N-(2-메톡시벤질)-1-(2-메톡시펜에틸)-6-(메틸티오)-1H-피라졸로[3,4-d]피리미딘-4-아민], with 27.4 ± 0.7%. As for `CSc1nc(Cl)c2c(-c3ccccc3)nn(C(C)(C)C)c2n1` [화합물 30c, 1-t-뷰틸-3-페닐-4-클로로-6-(메틸티오)피라졸로[3,4-d]피리미딘], the activity at 20 µM came out at 21 ± 22%. On the same count and under the same terms, then `COc1ccccc1CNc1nc(SC)nc2c1cnn2CCNC(=O)OC(C)(C)C` [화합물 14c, 1-(N-t-Boc-아미노에틸)-4-(2-메톡시벤질)아미노-6-(메틸티오)피라졸로[3,4-d]피리미딘], with 54 ± 5%. Consider `CSc1nc(NC(C)c2ccccc2)c2cnn(Cc3ccccc3)c2n1` (centres unmarked) [화합물 16x, 1-벤질-6-(메틸티오)-N-(1-페닐에틸)-1H-피라졸로[3,4-d]피리미딘-4-아민], for which the activity at 20 µM was 34 ± 1.4%.

For the compound `COc1cccc(CNc2nc(SC)nc3c2cnn3CCNC(=O)OC(C)(C)C)c1` [화합물 14d, 1-(N-t-Boc-아미노에틸)-4-(3-메톡시벤질)아미노-6-(메틸티오)피라졸로[3,4-d]피리미딘], the activity at 20 µM was determined as 49 ± 12%. The same measure, in the same setting: then `COc1cccc(CNc2nc(SC)nc3c2cnn3CCc2ccccc2OC)c1` [화합물 19a, 1-(2-메톡시펜에틸)-N-(3-메톡시벤질)-6-(메틸티오)-1H-피라졸로[3,4-d]피리미딘-4-아민], with 32 ± 1.1%; and `CSc1nc(Sc2ccc(C)cc2)c2cnn(-c3ccccc3)c2n1` [화합물 15y, 4-(p-톨릴티오)-6-(메틸티오)-1-페닐-1H-피라졸로[3,4-d]피리미딘], with 85 ± 2.3%.

As to `CSc1nc(NCCCn2ccnc2)c2cn[nH]c2n1` [6m, 4-(3-이미다졸-1-일)프로판아미노-6-(메틸티오)피라졸로[3,4-d]피리미딘], the activity at 20 µM turned out to be 97 ± 6%. In the case of `CC(Nc1nc(NCCCCO)nc2c1cnn2Cc1ccccc1)c1ccccc1` (centres unmarked) [화합물 24c, 4-(4-(1-페닐에틸아미노)-1-벤질-1H-피라졸로[3,4-d]피리미딘-6-일아미노)부탄-1-올], the activity at 20 µM amounted to 123 ± 5.4%.

Consider `COc1ccc(CNc2nc(SC)nc3[nH]ncc23)cc1` [6x, N-(4-메톡시벤질)-6-(메틸티오)-1H-피라졸로[3,4-d]피리미딘-4-아민], for which the activity at 20 µM turned out to be 115 ± 3.2%. With `Cc1ccccc1CNc1nc(S(C)(=O)=O)nc2c1cnn2-c1ccc(F)cc1` [화합물 23k, N-(2-메틸벤질)-1-(4-플루오로페닐)-6-(메틸설포닐)-1H-피라졸로[3,4-d]피리미딘-4-아민], the activity at 20 µM is 35 ± 4.6%. The same measure, in the same setting: then `COc1ccc(CNc2nc(SC)nc3c2cnn3-c2ccccc2)cc1` [화합물 15c, 1-페닐-4-(4-메톡시벤질)아미노-6-(메틸티오)피라졸로[3,4-d]피리미딘], with 61 ± 6%; and `COc1nc(SC)nc2c1cnn2-c1ccccc1` [화합물 15s, 1-페닐-4-메톡시-6-(메틸티오)피라졸로[3,4-d]피리미딘], with 93 ± 2%; and `CSc1nc(NCc2ccc(Cl)cc2)c2cnn(-c3ccccc3)c2n1` [화합물 15n, 1-페닐-4-(4-클로로벤질)아미노-6-(메틸티오)피라졸로[3,4-d]피리미딘], with 63 ± 6%. Same read-out and setting: then `COc1ccccc1CNc1nc(SC)nc2c1cnn2-c1ccc(F)cc1` [화합물 20b, N-(2-메톡시벤질)-1-(4-플루오로페닐)-6-(메틸티오)-1H-피라졸로[3,4-d]피리미딘-4-아민], with 48 ± 27.1%; and `CCCCCCCCSc1nc(SC)nc2c1cnn2Cc1ccccc1` [화합물 16v, 1-벤질-6-(메틸티오)-4-(옥틸티오)-1H-피라졸로[3,4-d]피리미딘], with 95 ± 4%; and `CSc1nc(NCc2ccc(F)cc2)c2c(-c3ccccc3)nn(Cc3ccccc3)c2n1` [32c, 1-벤질-3-페닐-4-(4-플루오로벤질)아미노-6-(메틸티오)피라졸로[3,4-d]피리미딘], with 69 ± 8%.

For `CSc1nc(NCc2ccccn2)c2cnn(-c3ccccc3)c2n1` [화합물 15j, 1-페닐-4-[(피리딘-2-일)메틸]아미노-6-(메틸티오)피라졸로[3,4-d]피리미딘], the activity at 20 µM turned out to be 30 ± 14%.

Consider `COc1ccc(CNc2nc(SC)nc3c2cnn3CCNC(=O)OC(C)(C)C)cc1` [화합물 14j, 2-(4-(4-메톡시벤질아미노)-6-(메틸티오)-1H-피라졸로[3,4-d]피리미딘-1-일)에틸카바메이트], for which the activity at 20 µM stood at 25.8 ± 3%. Same read-out and setting: then `COc1cccc(CCn2ncc3c(NCc4ccccc4Cl)nc([S+](C)[O-])nc32)c1` (centres unmarked) [화합물 22k, N-(2-클로로벤질)-1-(3-메톡시펜에틸)-6-(메틸설파이닐)-1H-피라졸로[3,4-d]피리미딘-4-아민], with 58 ± 2%; and `CSc1nc(NCCc2ccccc2)c2c(-c3ccccc3)nn(-c3ccccc3)c2n1` [화합물 31e, 1-페닐-3-페닐-4-(2-페닐에틸)아미노-6-(메틸티오)피라졸로[3,4-d]피리미딘], with 105 ± 10%; and `COc1ccc([C@H](C)Nc2nc(SC)nc3c2cnn3-c2ccc(C)cc2)cc1` [화합물 21j, N-((S)-1-(4-메톡시페닐)에틸)-6-(메틸티오)-1-p-톨릴-1H-피라졸로[3,4-d]피리미딘-4-아민], with 52 ± 1.7%. For the compound `C=CCn1ncc2c(NCc3ccc(Cl)cc3)nc(SC)nc21` [화합물 13f, N-(4-클로로벤질)-1-알릴-6-(메틸티오)-1H-피라졸로[3,4-d]피리미딘-4-아민], the activity at 20 µM was found to be 11 ± 2.9%. On the same count and under the same terms, in the case of `COc1ccccc1CNc1nc([S+](C)[O-])nc2c1cnn2-c1ccc(C)cc1` (centres unmarked) [화합물 22g, N-(2-메톡시벤질)-6-(메틸설파이닐)-1-p-톨릴-1H-피라졸로[3,4-d]피리미딘-4-아민] it was 42 ± 2.3%; in that of `COc1cccc(CCn2ncc3c(NCc4ccccc4OC)nc(SC)nc32)c1` [화합물 18b, N-(2-메톡시벤질)-1-(3-메톡시펜에틸)-6-(메틸티오)-1H-피라졸로[3,4-d]피리미딘-4-아민], 37 ± 17.6%; in that of `CSc1nc(NCCN2CCCCC2)c2cnn(-c3ccccc3)c2n1` [화합물 15g, 1-페닐-4-[2-(피페리딘-1-일)]에틸아미노-6-(메틸티오)피라졸로[3,4-d]피리미딘], 64 ± 7%. On to `CSc1nc(NC(C)(C)CO)c2cnn(-c3ccccc3)c2n1` [화합물 15k, 1-페닐-4-[(1-하이드록시-2,2-다이메틸)에틸]아미노-6-(메틸티오)피라졸로[3,4-d]피리미딘], for which the activity at 20 µM stood at 70 ± 3%. Same read-out and setting: then `C=CCNc1nc(SC)nc2c1c(-c1ccccc1)nn2-c1ccccc1` [화합물 31g, 1-페닐-3-페닐-4-알릴아미노-6-(메틸티오)피라졸로[3,4-d]피리미딘], with 71 ± 3%.

Regarding `C=CCNc1nc(SC)nc2c1cnn2CCO` [화합물 27c, 1-(1-하이드록시에틸)-4-알릴아미노-6-(메틸티오)피라졸로[3,4-d]피리미딘], the activity at 20 µM is 98 ± 6%. The same measure, in the same setting: in the case of `COc1cccc(CCn2ncc3c(Cl)nc(SC)nc32)c1` [5j, 1-(3-메톡시펜에틸)-4-클로로-6-(메틸티오)-1H-피라졸로[3,4-d]피리미딘] it was 5 ± 49.7%. With `CSc1nc(NCc2ccccc2Cl)c2cnn(-c3ccc(F)cc3)c2n1` [화합물 20a, N-(2-클로로벤질)-1-(4-플루오로페닐)-6-(메틸티오)-1H-피라졸로[3,4-d]피리미딘-4-아민], the activity at 20 µM turned out to be 48 ± 17.2%. On to `CSc1nc(NC(C)c2ccc(C)cc2)c2cnn(-c3ccc(C)cc3)c2n1` (centres unmarked) [화합물 21i, 6-(메틸티오)-1-p-톨릴-N-(1-p-톨릴에틸)-1H-피라졸로[3,4-d]피리미딘-4-아민], for which the activity at 20 µM came out at 57 ± 1%. On the same count and under the same terms, then `C=CCNc1nc(SC)nc2c1cnn2CCc1ccccc1OC` [화합물 19f, 1-(2-메톡시펜에틸)-N-알릴-6-(메틸티오)-1H-피라졸로[3,4-d]피리미딘-4-아민], with 75 ± 8.7%.

The same assay, now with this note: Mus musculus, BV-2, 24 h, 30 μM, LPS 0.2 ㎍/mL, 24 h co-treatment, nitrite by Griess at 540 nm.
With `CSc1ncc2cn[nH]c2n1` [7a, 6-(메틸티오)피라졸로[3,4-d]피리미딘], the activity at 30 µM was determined as 79 ± 1%.
